Experimental findings from patent publication US20250388565A1, “ESTROGEN RECEPTOR ALPHA DEGRADERS AND METHODS OF USE THEREOF” (Relay Therapeutics, Inc., priority 2022, published 2025) are described below.

The term DC50 denotes the concentration giving 50% degradation.

The structures appear in SMILES notation.

The experiment addresses T1, ERα protein (HiBiT-tagged) in ESR1_HiBiT KI MCF7 cells (Homo sapiens, UniProt P03372).
T1 sequence (P03372 1-595): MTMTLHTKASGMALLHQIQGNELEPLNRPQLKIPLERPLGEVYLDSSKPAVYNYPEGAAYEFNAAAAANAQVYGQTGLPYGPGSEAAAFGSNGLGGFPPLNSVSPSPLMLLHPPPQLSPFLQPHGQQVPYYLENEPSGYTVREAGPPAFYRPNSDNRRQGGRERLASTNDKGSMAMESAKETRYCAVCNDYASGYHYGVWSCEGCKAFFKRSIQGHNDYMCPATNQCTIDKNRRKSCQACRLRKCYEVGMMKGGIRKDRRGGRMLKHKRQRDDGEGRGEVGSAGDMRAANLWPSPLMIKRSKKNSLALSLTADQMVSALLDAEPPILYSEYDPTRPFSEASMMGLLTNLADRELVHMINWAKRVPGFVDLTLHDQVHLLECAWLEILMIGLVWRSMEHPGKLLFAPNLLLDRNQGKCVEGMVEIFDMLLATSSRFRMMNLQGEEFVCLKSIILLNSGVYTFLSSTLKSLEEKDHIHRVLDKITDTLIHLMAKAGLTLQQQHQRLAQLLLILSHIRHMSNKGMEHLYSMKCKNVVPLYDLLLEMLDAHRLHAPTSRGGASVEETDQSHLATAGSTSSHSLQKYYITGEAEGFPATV
The experiment is described as follows: Nano Glo HiBiT Lytic Degradation Assay. In kind it is cell-based. The note with it: 6 hours with compound, 14-point dose response 1:3, bell-shape curve fit, half-maximal effect of first Hill model, read-out: MCF7 ESR1 HiBiT - (DC50). The method, boiled down:
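Lytic Nano-Glo HiBiT luminescence quantified ERα remaining after a 6 h, 37° C compound exposure of MCF7 cells carrying endogenous HiBiT-tagged ESR1. Dosing used 14 threefold dilutions from a 10 mM DMSO stock (0.1% DMSO final), run in duplicate. Signals were corrected for cell-free background and expressed relative to DMSO, and DC50 came from a bell-shaped curve fit (first Hill model half-maximum).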
(With HiBiT, luminescence reflects the tagged protein that the partner subunit can reach.)
With `COc1cc(N2CCC(CN3CCN(c4ccc5c(c4)CN([C@H]4CCC(=O)NC4=O)C5=O)CC3)CC2)c(-c2ccccc2)cc1[C@@H]1CCC(F)(F)c2cc(O)ccc21` [Compound I-405, (S)-3-(5-(4-((1-(5-((R)-4,4-difluoro-6-hydroxy-1,2,3,4-tetrahydronaphthalen-1-yl)-4-methoxy-[1,1′-biphenyl]-2-yl)piperidin-4-yl)methyl)piperazin-1-yl)-1-oxoisoindolin-2-yl)piperidine-2,6-dione], the DC50 was 1100 nM.

For `O=C1CCC(c2ccc(N3CCN(CC4CCN(c5ccc([C@@H]6c7ccc(O)cc7CC[C@@H]6c6ccccc6)cc5)CC4)CC3)cc2)C(=O)N1` (stereo partly drawn) [Compound I-39, 3-[4-[4-[[1-[4-[(1R,2S)-6-hydroxy-2-phenyl-tetralin-1-yl]phenyl]-4-piperidyl]methyl]piperazin-1-yl]phenyl]piperidine-2,6-dione], the DC50 is 469 nM.

As to `C[C@@H]1Cc2cc(O)ccc2[C@H](c2ccc(N3CCC(CN4CCN(c5ccc6c(c5)CN([C@H]5CCC(=O)NC5=O)C6=O)CC4)CC3)cc2)[C@@H]1c1ccccc1` [Compound I-333, (S)-3-(5-(4-((1-(4-((1S,2R,3R)-6-hydroxy-3-methyl-2-phenyl-1,2,3,4-tetrahydronaphthalen-1-yl)phenyl)piperidin-4-yl)methyl)piperazin-1-yl)-1-oxoisoindolin-2-yl)piperidine-2,6-dione], the DC50 stood at 21 nM.

For the compound `O=C1CC[C@H](N2Cc3cc(N4CCN(CC5CCN(c6ccc([C@H]7c8ccc(O)cc8C(F)(F)C[C@H]7c7ccccc7F)cc6)CC5)CC4)ccc3C2=O)C(=O)N1` [Compound I-313, (S)-3-(5-(4-((1-(4-((1S,2R)-4,4-difluoro-2-(2-fluorophenyl)-6-hydroxy-1,2,3,4-tetrahydronaphthalen-1-yl)phenyl)piperidin-4-yl)methyl)piperazin-1-yl)-1-oxoisoindolin-2-yl)piperidine-2,6-dione], the half-maximal degradation concentration (DC50) came out at 15 nM.

For `O=C1CC[C@H](N2Cc3cc(N4CCN(CC5CCN(c6ccc([C@H]7c8ccc(O)cc8C(F)(F)C[C@H]7C7CCCC7)cc6)CC5)CC4)ccc3C2=O)C(=O)N1` [Compound I-234, (S)-3-(5-(4-((1-(4-((1S,2S)-2-cyclopentyl-4,4-difluoro-6-hydroxy-1,2,3,4-tetrahydronaphthalen-1-yl)phenyl)piperidin-4-yl)methyl)piperazin-1-yl)-1-oxoisoindolin-2-yl)piperidine-2,6-dione], the half-maximal degradation concentration (DC50) was determined as 959 nM.

`CC(C)(O)[C@H]1CCc2cc(O)ccc2[C@H]1c1ccc(N2CCC(CN3CCN(c4ccc5c(c4)CN([C@H]4CCC(=O)NC4=O)C5=O)CC3)CC2)cc1` [Compound I-204, (S)-3-(5-(4-((1-(4-((1R,2S)-6-hydroxy-2-(2-hydroxypropan-2-yl)-1,2,3,4-tetrahydronaphthalen-1-yl)phenyl)piperidin-4-yl)methyl)piperazin-1-yl)-1-oxoisoindolin-2-yl)piperidine-2,6-dione]: the DC50 came to 2 nM.

With `Cn1c(=O)n(C2CCC(=O)NC2=O)c2ccc(N3CCN(CC4CCN(c5ccc([C@@H]6c7ccc(O)cc7CC[C@@H]6c6ccccc6)cc5)CC4)CC3)cc21` (stereo partly drawn) [Compound I-190, 3-(5-(4-((1-(4-((1R,2S)-6-hydroxy-2-phenyl-1,2,3,4-tetrahydronaphthalen-1-yl)phenyl)piperidin-4-yl)methyl)piperazin-1-yl)-3-methyl-2-oxo-2,3-dihydro-1H-benzo[d]imidazol-1-yl)piperidine-2,6-dione], the DC50 came out at 0.4 nM.

As to `O=C1CCC(c2ccc(N3CCC4(CCN(CC5CCN(c6ccc([C@@H]7c8ccc(O)cc8C(F)(F)C[C@@H]7c7ccccc7)cc6)CC5)C4)C3)cc2)C(=O)N1` (single isomer, unassigned) [Compound I-282, 3-(4-((R*)-7-((1-(4-((1R,2S)-4,4-difluoro-6-hydroxy-2-phenyl-1,2,3,4-tetrahydronaphthalen-1-yl)phenyl)piperidin-4-yl)methyl)-2,7-diazaspiro[4.4]nonan-2-yl)phenyl)piperidine-2,6-dione], the DC50 was 24.5 nM.

For `O=C1CCC(N2Cc3cc([C@@H]4CCN(CC5CCN(c6ccc([C@@H]7c8ccc(O)cc8CC[C@@H]7c7ccccc7)cc6)CC5)C[C@H]4O)ccc3C2=O)C(=O)N1` (single isomer, unassigned) [II-106], the 50% degradation concentration (DC50) is 2.82 nM.

In the case of `C[C@H]1C[C@@H](CN2CCN(c3ccc4c(c3)CN(C3CCC(=O)NC3=O)C4=O)CC2)CCN1c1ccc([C@@H]2c3ccc(O)cc3CC[C@@H]2c2ccccc2)cc1` (single isomer, unassigned) [II-49], the 50% degradation concentration (DC50) amounted to 6 nM.

For the compound `C[C@]1(N2Cc3cc(N4CCN(CC5CCN(c6ccc([C@@H]7c8ccc(O)cc8CC[C@@H]7c7ccccc7)cc6)CC5)CC4)ccc3C2=O)CCC(=O)NC1=O` (single isomer, unassigned) [II-57], the DC50 is ≥ 10000 nM.

As for `Cc1cc(F)cc([C@H]2OCc3cc(O)ccc3[C@H]2c2ccc(N3CCC(CN4CCN(c5ccc6c(c5)CN([C@H]5CCC(=O)NC5=O)C6=O)CC4)CC3)cc2)c1` [Compound I-377, (S)-3-(5-(4-((1-(4-((3S,4R)-3-(3-fluoro-5-methylphenyl)-7-hydroxyisochroman-4-yl)phenyl)piperidin-4-yl)methyl)piperazin-1-yl)-1-oxoisoindolin-2-yl)piperidine-2,6-dione], the half-maximal degradation concentration (DC50) was 0.62 nM.

As to `O=C1CC[C@H](N2Cc3cc(N4CC5(CCN(CC6CCN(c7ccc([C@H]8c9ccc(O)cc9CC[C@H]8c8ccccc8)cc7)CC6)CC5)C4)ccc3C2=O)C(=O)N1` (single isomer, unassigned) [II-96], the 50% degradation concentration (DC50) was ≥ 10000 nM.

`O=C1CC[C@H](c2ccc(N3CCC4(CCN(CC5CCN(c6ccc([C@@H]7c8ccc(O)cc8C(F)(F)C[C@@H]7c7ccccc7)cc6)CC5)C4)CC3)cc2)C(=O)N1` (single isomer, unassigned) [Compound I-285]: the DC50 was determined as 0.27 nM.

With `O=C1CCC(N2Cc3cc(N4CCN(CC5CCN(c6c(F)cc([C@H]7c8ccc(O)cc8CC[C@H]7C7CCCCC7)cc6F)CC5)CC4)ccc3C2=O)C(=O)N1` (stereo in doubt) [Compound I-160, (R)-3-(5-(4-((1-(4-((1S,2S)-2-cyclohexyl-6-hydroxy-1,2,3,4-tetrahydronaphthalen-1-yl)-2,6-difluorophenyl)piperidin-4-yl)methyl)piperazin-1-yl)-1-oxoisoindolin-2-yl)piperidine-2,6-dione], the half-maximal degradation concentration (DC50) is ≥ 10000 nM.

Regarding `O=C1CC[C@H](N2Cc3cc(N4CCN(C[C@@H]5CCCN(c6ccc([C@H]7c8ccc(O)cc8CC[C@H]7c7ccccc7)cc6)C5)CC4)ccc3C2=O)C(=O)N1` (single isomer, unassigned) [II-21], the DC50 amounted to 173 nM.

In the case of `O=C1CC[C@H](N2Cc3cc(N4CCN(CC5CCN(c6ccc([C@@H]7c8ccc(O)cc8CC[C@@H]7c7cccc8c7CCCC8)cc6)CC5)CC4)ccc3C2=O)C(=O)N1` (single isomer, unassigned) [Compound I-62], the DC50 came to 2 nM.

`O=C1CC[C@H](N2Cc3cc(N4CCN(CC5CCN(c6ccc([C@@H]7c8ccc(O)cc8CO[C@@H]7c7ccccc7F)cc6)CC5)CC4)ccc3C2=O)C(=O)N1` [Compound I-347, (S)-3-(5-(4-((1-(4-((3S,4R)-3-(2-fluorophenyl)-7-hydroxyisochroman-4-yl)phenyl)piperidin-4-yl)methyl)piperazin-1-yl)-1-oxoisoindolin-2-yl)piperidine-2,6-dione]: the DC50 was 0.18 nM.

As for `O=C1CC[C@H](N2Cc3cc(N4CCN(CC5CCN(c6ccc([C@H]7c8ccc(O)cc8CC[C@H]7c7cccc8c7CCC8)cc6)CC5)CC4)ccc3C2=O)C(=O)N1` (single isomer, unassigned) [Compound I-411], the 50% degradation concentration (DC50) stood at 1 nM.

Turning to `Cn1c(=O)n([C@@H]2CCC(=O)NC2=O)c2ccc(N3CCN(CC4CCN(c5ccc([C@@H]6c7ccc(O)cc7CO[C@@H]6c6ccccc6)cc5)CC4)CC3)cc21` (single isomer, unassigned) [Compound I-388], the DC50 came out at 40 nM.

On to `O=C1CC[C@H](N2Cc3cc(N4CCN(CC5CCN(c6ccc([C@H]7c8ccc(O)cc8CC[C@@]78CCc7ccccc78)cc6)CC5)CC4)ccc3C2=O)C(=O)N1` (relative stereo) [Compound I-261, (S)-3-(5-(4-((1-(4-((1S*,1′R*)-6′-hydroxy-2,3,3′,4′-tetrahydro-1′H-spirofindene-1,2′-naphthalen]-1′-yl)phenyl)piperidin-4-yl)methyl)piperazin-1-yl)-1-oxoisoindolin-2-yl)piperidine-2,6-dione], for which the DC50 is 19 nM.

As for `O=C1CCN(c2ccc(N3CCC4(CCN(CC5CCN(c6ccc([C@@H]7c8ccc(O)cc8C(F)(F)C[C@@H]7c7ccccc7)cc6)CC5)C4)CC3)cc2)C(=O)N1` [Compound I-292, 1-(4-(2-((1-(4-((1R,2S)-4,4-difluoro-6-hydroxy-2-phenyl-1,2,3,4-tetrahydronaphthalen-1-yl)phenyl)piperidin-4-yl)methyl)-2,8-diazaspiro[4.5]decan-8-yl)phenyl)dihydropyrimidine-2,4 (1H,3H)-dione], the DC50 was found to be 0.73 nM.
